From patent US11950611B2, “Highly soluble Rebaudioside D” (PURECIRCLE SDN BHD, priority 2013, dated 2024)

Experiments:
[1] = cited from earlier work
[2] = room temperature, water; cited from earlier work
[3] = Solubility of Rebaudioside D (crystalline vs amorphous) in water; type: physicochemical; details: for water solubility: room temperature, g per 100 g solvent
Description: Hereinafter, unless specified otherwise the solubility of material is determined in RO (reverse osmosis) water at room temperature. […] The solution was maintained at 50° C. and dried using a YC-015 laboratory spray drier (Shanghai Pilotech Instrument & Equipment Co. Ltd., China) operating at 175° C. inlet and 100° C. outlet temperatures.

Compound | Rate of dissolution in H2O at 25° C. (in words) [1] | Rate of dissolution in H2O at 25° C., amount dissolved in 5 minutes [1] | water solubility [3] | also measured
C=C1C[C@@]23CC[C@H]4[C@@](C)(CCC[C@@]4(C)C(=O)O[C@@H]4O[C@H](CO)[C@@H](O)[C@H](O)[C@H]4O)[C@@H]2CC[C@]1(O[C@@H]1O[C@H](CO)[C@@H](O)[C@H](O[C@@H]2O[C@H](CO)[C@@H](O)[C@H](O)[C@H]2O)[C@H]1O[C@@H]1O[C@H](CO)[C@@H](O)[C@H](O)[C@H]1O)C3 [Form 1, Rebaudioside A] | Very low | – | – | Rate of dissolution in H2O at 25° C., amount dissolved in 60 minutes ([1]; in 60 minutes): (<0.2% in 60
C=C1C[C@@]23CC[C@H]4[C@@](C)(CCC[C@@]4(C)C(=O)O[C@@H]4O[C@H](CO)[C@@H](O)[C@H](O)[C@H]4O)[C@@H]2CC[C@]1(O[C@@H]1O[C@H](CO)[C@@H](O)[C@H](O[C@@H]2O[C@H](CO)[C@@H](O)[C@H](O)[C@H]2O)[C@H]1O[C@@H]1O[C@H](CO)[C@@H](O)[C@H](O)[C@H]1O)C3 [Form 2, Rebaudioside A] | Intermediate | (<30% in 5 | – | –
C=C1C[C@@]23CC[C@H]4[C@@](C)(CCC[C@@]4(C)C(=O)O[C@@H]4O[C@H](CO)[C@@H](O)[C@H](O)[C@H]4O)[C@@H]2CC[C@]1(O[C@@H]1O[C@H](CO)[C@@H](O)[C@H](O[C@@H]2O[C@H](CO)[C@@H](O)[C@H](O)[C@H]2O)[C@H]1O[C@@H]1O[C@H](CO)[C@@H](O)[C@H](O)[C@H]1O)C3 [Form 3, Rebaudioside A] | High | (>30% in 5 | – | –
C=C1C[C@@]23CC[C@H]4[C@@](C)(CCC[C@@]4(C)C(=O)O[C@@H]4O[C@H](CO)[C@@H](O)[C@H](O)[C@H]4O)[C@@H]2CC[C@]1(O[C@@H]1O[C@H](CO)[C@@H](O)[C@H](O[C@@H]2O[C@H](CO)[C@@H](O)[C@H](O)[C@H]2O)[C@H]1O[C@@H]1O[C@H](CO)[C@@H](O)[C@H](O)[C@H]1O)C3 [Form 4, Rebaudioside A] | High | (>35% in 5 | – | –
C=C1C[C@@]23CC[C@H]4[C@@](C)(CCC[C@@]4(C)C(=O)O[C@@H]4O[C@H](CO)[C@@H](O)[C@H](O)[C@H]4O)[C@@H]2CC[C@]1(O[C@@H]1O[C@H](CO)[C@@H](O)[C@H](O[C@@H]2O[C@H](CO)[C@@H](O)[C@H](O)[C@H]2O)[C@H]1O[C@@H]1O[C@H](CO)[C@@H](O)[C@H](O)[C@H]1O)C3 [Rebaudioside A] | – | – | – | thermodynamic equilibrium solubility [2]: 0.8%
C=C1C[C@@]23CC[C@H]4[C@@](C)(CCC[C@@]4(C)C(=O)O[C@@H]4O[C@H](CO)[C@@H](O)[C@H](O)[C@H]4O[C@@H]4O[C@H](CO)[C@@H](O)[C@H](O)[C@H]4O)[C@@H]2CC[C@]1(O[C@@H]1O[C@H](CO)[C@@H](O)[C@H](O[C@@H]2O[C@H](CO)[C@@H](O)[C@H](O)[C@H]2O)[C@H]1O[C@@H]1O[C@H](CO)[C@@H](O)[C@H](O)[C@H]1O)C3 [Rebaudioside D] | – | – | 0.05% | water solubility when heat is applied ([3]; heated, upon cooling to room temperature crystallizes back out): up to 0.5%
C=C1C[C@@]23CC[C@H]4[C@@](C)(CCC[C@@]4(C)C(=O)O[C@@H]4O[C@H](CO)[C@@H](O)[C@H](O)[C@H]4O[C@@H]4O[C@H](CO)[C@@H](O)[C@H](O)[C@H]4O)[C@@H]2CC[C@]1(O[C@@H]1O[C@H](CO)[C@@H](O)[C@H](O[C@@H]2O[C@H](CO)[C@@H](O)[C@H](O)[C@H]2O)[C@H]1O[C@@H]1O[C@H](CO)[C@@H](O)[C@H](O)[C@H]1O)C3 [amorphous Reb D, Rebaudioside D] | – | – | 0.2% | –
C=C1C[C@@]23CC[C@H]4[C@@](C)(CCC[C@@]4(C)C(=O)O[C@@H]4O[C@H](CO)[C@@H](O)[C@H](O)[C@H]4O[C@@H]4O[C@H](CO)[C@@H](O)[C@H](O)[C@H]4O)[C@@H]2CC[C@]1(O[C@@H]1O[C@H](CO)[C@@H](O)[C@H](O[C@@H]2O[C@H](CO)[C@@H](O)[C@H](O)[C@H]2O)[C@H]1O[C@@H]1O[C@H](CO)[C@@H](O)[C@H](O)[C@H]1O)C3 [crystalline Rebaudioside D, Rebaudioside D] | – | – | 0.05% | Solubility, % (in water) 20° C. ([3]; water, 20° C.): 0.05%; Solubility, % (in water) 50° C.* ([3]; water, 50° C., solution crystallized after cooling to room temperature (20° C.)): 0.2%; Solubility, % (in water) 100° C.* ([3]; water, 100° C., solution crystallized after cooling to room temperature (20° C.)): 0.5%
